Values quoted from earlier work as cited in patent US20090142391A1, “Conjugated RNAi Therapeutics” (priority 2007, published 2009).

Settings: in the blood

distribution into protected cellular compartments: 72-98%
Structure (SMILES): C=CC[C@@H]1/C=C(\C)C[C@H](C)C[C@H](OC)[C@H]2O[C@@](O)(C(=O)C(=O)N3CCCC[C@H]3C(=O)O[C@H](/C(C)=C/[C@@H]3CC[C@@H](O)[C@H](OC)C3)[C@H](C)[C@@H](O)CC1=O)[C@H](C)C[C@@H]2OC [FK506]
